{"source": "patent US20250243196A1", "about": "“CITRON KINASE INHIBITORS” (The Cleveland Clinic Foundation, priority 2021, published 2025)", "assay_in_all_cases": "KinaseProfiler panel", "assay_type_in_all_cases": "biochemical", "conditions_in_all_cases": "activity remaining", "key": {"DCAMKL1(h)": {"target": "DCAMKL1(h) (Homo sapiens (Human), UniProt O15075)", "parameters": "dose or concentration left out as unconfirmed"}, "Flt4(h)": {"target": "Flt4(h) (Homo sapiens (Human), UniProt P35916)", "parameters": "dose or concentration left out as unconfirmed"}, "PAK2(h)": {"target": "PAK2(h) (Homo sapiens (Human), UniProt Q13177)", "parameters": "dose or concentration left out as unconfirmed"}, "MSSK1(h)": {"target": "MSSK1(h) (Homo sapiens (Human), UniProt Q9UPE1)"}, "GRK3(h)": {"target": "GRK3(h) (Homo sapiens (Human), UniProt P35626)", "sequence (P35626 whole entry)": "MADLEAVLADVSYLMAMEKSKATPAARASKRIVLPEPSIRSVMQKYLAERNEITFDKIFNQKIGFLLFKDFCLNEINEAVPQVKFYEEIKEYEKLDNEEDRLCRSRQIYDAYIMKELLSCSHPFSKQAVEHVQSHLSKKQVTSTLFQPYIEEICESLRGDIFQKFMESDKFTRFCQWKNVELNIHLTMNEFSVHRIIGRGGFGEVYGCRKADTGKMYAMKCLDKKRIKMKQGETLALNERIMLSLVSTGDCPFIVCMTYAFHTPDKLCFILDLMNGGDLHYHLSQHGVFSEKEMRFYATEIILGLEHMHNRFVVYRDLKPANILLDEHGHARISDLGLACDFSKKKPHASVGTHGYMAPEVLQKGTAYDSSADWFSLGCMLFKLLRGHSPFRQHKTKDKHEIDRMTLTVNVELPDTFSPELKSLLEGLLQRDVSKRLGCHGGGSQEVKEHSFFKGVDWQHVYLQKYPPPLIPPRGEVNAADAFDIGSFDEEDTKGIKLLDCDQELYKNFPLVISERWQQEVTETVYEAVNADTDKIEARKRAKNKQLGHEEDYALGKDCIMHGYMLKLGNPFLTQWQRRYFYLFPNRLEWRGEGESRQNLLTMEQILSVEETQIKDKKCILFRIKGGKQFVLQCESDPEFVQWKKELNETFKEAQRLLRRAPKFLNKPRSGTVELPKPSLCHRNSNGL", "parameters": "dose or concentration left out as unconfirmed"}, "SRMS(h)": {"target": "SRMS(h) (Homo sapiens (Human), UniProt Q9H3Y6)", "parameters": "dose or concentration left out as unconfirmed"}, "EphB3(h)": {"target": "EphB3(h) (Homo sapiens (Human), UniProt P54753)", "parameters": "dose or concentration left out as unconfirmed"}, "MST3(h)": {"target": "MST3(h) (Homo sapiens (Human), UniProt Q9Y6E0)", "parameters": "dose or concentration left out as unconfirmed"}, "CK2α2(h)": {"target": "CK2α2(h) (Homo sapiens (Human), UniProt P19784)", "sequence (P19784 whole entry)": "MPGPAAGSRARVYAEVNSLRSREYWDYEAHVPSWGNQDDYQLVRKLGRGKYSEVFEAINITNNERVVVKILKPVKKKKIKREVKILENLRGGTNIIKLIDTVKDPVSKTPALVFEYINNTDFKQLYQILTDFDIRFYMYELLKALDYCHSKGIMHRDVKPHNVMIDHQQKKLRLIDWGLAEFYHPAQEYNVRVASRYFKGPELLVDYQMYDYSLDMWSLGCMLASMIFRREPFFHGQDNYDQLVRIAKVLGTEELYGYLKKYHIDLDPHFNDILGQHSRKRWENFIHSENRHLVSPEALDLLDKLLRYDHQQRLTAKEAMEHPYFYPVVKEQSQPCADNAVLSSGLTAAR", "parameters": "dose or concentration left out as unconfirmed"}, "ICK(h)": {"target": "ICK(h) (Homo sapiens (Human), UniProt Q9UPZ9)"}, "Pim-1(h)": {"target": "Pim-1(h) (Homo sapiens (Human), UniProt P11309)", "parameters": "dose or concentration left out as unconfirmed"}, "TTK(h)": {"target": "TTK(h) (Homo sapiens (Human), UniProt P33981)", "parameters": "dose or concentration left out as unconfirmed"}, "CK1δ(h)": {"target": "CK1δ(h) (Homo sapiens (Human), UniProt P48730)", "parameters": "dose or concentration left out as unconfirmed"}, "LIMK2(h)": {"target": "LIMK2(h) (Homo sapiens (Human), UniProt P53671)", "parameters": "dose or concentration left out as unconfirmed"}, "MEKK3(h)": {"target": "MEKK3(h) (Homo sapiens (Human), UniProt Q99759)", "parameters": "dose or concentration left out as unconfirmed"}, "PKCη(h)": {"target": "PKCη(h) (Homo sapiens (Human), UniProt P24723)", "sequence (P24723 whole entry)": "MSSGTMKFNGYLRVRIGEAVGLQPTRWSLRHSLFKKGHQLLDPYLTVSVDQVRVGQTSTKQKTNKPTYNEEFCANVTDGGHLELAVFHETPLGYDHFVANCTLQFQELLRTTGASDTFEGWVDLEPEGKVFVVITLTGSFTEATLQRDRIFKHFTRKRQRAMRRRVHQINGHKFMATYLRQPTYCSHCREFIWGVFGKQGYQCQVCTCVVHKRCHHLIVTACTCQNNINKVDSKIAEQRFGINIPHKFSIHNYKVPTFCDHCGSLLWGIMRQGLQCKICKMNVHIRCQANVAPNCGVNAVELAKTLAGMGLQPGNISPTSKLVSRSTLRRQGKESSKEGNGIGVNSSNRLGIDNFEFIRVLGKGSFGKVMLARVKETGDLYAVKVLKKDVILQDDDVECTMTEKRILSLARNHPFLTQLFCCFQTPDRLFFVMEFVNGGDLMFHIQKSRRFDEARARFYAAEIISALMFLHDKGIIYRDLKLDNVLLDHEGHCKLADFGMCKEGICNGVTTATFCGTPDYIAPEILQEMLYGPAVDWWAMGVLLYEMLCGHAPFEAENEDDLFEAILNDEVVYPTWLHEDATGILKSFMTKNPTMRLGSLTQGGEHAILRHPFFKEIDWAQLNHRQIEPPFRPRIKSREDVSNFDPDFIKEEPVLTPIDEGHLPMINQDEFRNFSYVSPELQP", "parameters": "dose or concentration left out as unconfirmed"}, "MYO3B(h)": {"target": "MYO3B(h) (Homo sapiens (Human), UniProt Q8WXR4)", "parameters": "dose or concentration left out as unconfirmed"}, "STK25(h)": {"target": "STK25(h) (Homo sapiens (Human), UniProt O00506)", "parameters": "dose or concentration left out as unconfirmed"}, "RIPK2(h)": {"target": "RIPK2(h) (Homo sapiens (Human), UniProt O43353)", "parameters": "dose or concentration left out as unconfirmed"}, "PKCγ(h)": {"target": "PKCγ(h) (Homo sapiens (Human), UniProt P05129)", "parameters": "dose or concentration left out as unconfirmed"}, "MAPK1(h)": {"target": "MAPK1(h) (Homo sapiens (Human), UniProt P27361)", "parameters": "dose or concentration left out as unconfirmed"}, "Haspin(h)": {"target": "Haspin(h) (Homo sapiens (Human), UniProt Q8TF76)", "parameters": "dose or concentration left out as unconfirmed"}, "CK1α(h)": {"target": "CK1α(h) (Homo sapiens (Human), UniProt P48729)", "parameters": "dose or concentration left out as unconfirmed"}, "CRIK(h)": {"target": "CRIK(h) (Homo sapiens (Human), UniProt O14578)", "parameters": "dose or concentration left out as unconfirmed"}, "CDKL3(h)": {"target": "CDKL3(h) (Homo sapiens (Human), UniProt Q8IVW4)", "sequence (Q8IVW4 whole entry)": "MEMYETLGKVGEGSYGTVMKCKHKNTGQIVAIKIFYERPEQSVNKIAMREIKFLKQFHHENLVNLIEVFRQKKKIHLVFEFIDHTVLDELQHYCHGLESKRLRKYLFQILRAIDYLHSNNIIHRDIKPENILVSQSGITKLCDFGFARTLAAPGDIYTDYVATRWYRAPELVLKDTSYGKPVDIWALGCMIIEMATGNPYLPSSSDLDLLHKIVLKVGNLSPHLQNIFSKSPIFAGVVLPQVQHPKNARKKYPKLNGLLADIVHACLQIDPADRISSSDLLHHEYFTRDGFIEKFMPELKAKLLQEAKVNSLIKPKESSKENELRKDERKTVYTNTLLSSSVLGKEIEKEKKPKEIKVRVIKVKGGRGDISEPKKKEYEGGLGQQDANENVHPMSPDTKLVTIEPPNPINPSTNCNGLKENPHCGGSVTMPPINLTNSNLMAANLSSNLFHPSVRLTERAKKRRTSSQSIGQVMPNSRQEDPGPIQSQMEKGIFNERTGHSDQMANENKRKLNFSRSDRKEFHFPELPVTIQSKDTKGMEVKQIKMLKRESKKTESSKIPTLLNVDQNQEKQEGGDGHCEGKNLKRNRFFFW", "parameters": "dose or concentration left out as unconfirmed"}, "PKCε(h)": {"target": "PKCε(h) (Homo sapiens (Human), UniProt Q02156)", "sequence (Q02156 whole entry)": "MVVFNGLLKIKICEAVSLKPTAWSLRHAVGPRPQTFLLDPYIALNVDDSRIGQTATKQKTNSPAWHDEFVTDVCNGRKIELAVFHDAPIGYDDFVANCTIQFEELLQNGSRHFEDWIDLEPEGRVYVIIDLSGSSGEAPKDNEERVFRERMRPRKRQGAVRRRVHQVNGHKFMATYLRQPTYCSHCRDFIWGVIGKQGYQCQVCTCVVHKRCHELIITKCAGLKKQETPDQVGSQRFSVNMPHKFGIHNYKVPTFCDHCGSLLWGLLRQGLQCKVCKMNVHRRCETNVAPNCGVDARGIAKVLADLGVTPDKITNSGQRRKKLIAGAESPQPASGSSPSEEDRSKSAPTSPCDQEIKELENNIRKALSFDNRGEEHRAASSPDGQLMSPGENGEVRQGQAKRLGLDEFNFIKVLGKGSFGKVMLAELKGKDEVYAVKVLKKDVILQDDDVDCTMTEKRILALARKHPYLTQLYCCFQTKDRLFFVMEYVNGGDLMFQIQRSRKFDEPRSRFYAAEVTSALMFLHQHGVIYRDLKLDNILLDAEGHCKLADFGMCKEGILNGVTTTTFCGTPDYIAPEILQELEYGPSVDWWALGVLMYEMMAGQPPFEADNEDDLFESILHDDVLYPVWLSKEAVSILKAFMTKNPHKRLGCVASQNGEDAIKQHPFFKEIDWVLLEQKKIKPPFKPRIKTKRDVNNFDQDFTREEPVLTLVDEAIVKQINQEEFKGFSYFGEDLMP", "parameters": "dose or concentration left out as unconfirmed"}, "IKKε(h)": {"target": "IKKε(h) (Homo sapiens (Human), UniProt Q14164)", "parameters": "dose or concentration left out as unconfirmed"}, "NEK4(h)": {"target": "NEK4(h) (Homo sapiens (Human), UniProt P51957)", "parameters": "dose or concentration left out as unconfirmed"}, "PAK5(h)": {"target": "PAK5(h) (Homo sapiens (Human), UniProt Q9P286)", "sequence (Q9P286 whole entry)": "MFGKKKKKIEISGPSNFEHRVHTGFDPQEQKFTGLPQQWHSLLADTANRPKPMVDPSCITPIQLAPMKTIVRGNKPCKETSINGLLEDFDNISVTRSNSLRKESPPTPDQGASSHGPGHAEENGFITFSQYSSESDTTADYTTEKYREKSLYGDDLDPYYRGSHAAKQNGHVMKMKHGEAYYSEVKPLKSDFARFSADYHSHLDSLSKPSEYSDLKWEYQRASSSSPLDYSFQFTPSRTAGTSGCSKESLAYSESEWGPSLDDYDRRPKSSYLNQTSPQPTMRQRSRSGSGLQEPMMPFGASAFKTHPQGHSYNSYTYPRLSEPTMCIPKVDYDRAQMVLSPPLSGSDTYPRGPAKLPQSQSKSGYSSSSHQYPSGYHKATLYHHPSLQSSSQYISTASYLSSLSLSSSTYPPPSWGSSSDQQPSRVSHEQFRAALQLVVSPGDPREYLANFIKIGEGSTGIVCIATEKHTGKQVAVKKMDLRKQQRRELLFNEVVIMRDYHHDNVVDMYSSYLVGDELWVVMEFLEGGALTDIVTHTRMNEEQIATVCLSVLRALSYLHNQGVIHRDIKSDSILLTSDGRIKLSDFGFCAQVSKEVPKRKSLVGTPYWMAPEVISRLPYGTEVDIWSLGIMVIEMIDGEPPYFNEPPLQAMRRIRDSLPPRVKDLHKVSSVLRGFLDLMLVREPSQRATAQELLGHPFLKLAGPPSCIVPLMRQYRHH", "parameters": "dose or concentration left out as unconfirmed"}, "MLK1(h)": {"target": "MLK1(h) (Homo sapiens (Human), UniProt P80192)", "sequence (P80192 whole entry)": "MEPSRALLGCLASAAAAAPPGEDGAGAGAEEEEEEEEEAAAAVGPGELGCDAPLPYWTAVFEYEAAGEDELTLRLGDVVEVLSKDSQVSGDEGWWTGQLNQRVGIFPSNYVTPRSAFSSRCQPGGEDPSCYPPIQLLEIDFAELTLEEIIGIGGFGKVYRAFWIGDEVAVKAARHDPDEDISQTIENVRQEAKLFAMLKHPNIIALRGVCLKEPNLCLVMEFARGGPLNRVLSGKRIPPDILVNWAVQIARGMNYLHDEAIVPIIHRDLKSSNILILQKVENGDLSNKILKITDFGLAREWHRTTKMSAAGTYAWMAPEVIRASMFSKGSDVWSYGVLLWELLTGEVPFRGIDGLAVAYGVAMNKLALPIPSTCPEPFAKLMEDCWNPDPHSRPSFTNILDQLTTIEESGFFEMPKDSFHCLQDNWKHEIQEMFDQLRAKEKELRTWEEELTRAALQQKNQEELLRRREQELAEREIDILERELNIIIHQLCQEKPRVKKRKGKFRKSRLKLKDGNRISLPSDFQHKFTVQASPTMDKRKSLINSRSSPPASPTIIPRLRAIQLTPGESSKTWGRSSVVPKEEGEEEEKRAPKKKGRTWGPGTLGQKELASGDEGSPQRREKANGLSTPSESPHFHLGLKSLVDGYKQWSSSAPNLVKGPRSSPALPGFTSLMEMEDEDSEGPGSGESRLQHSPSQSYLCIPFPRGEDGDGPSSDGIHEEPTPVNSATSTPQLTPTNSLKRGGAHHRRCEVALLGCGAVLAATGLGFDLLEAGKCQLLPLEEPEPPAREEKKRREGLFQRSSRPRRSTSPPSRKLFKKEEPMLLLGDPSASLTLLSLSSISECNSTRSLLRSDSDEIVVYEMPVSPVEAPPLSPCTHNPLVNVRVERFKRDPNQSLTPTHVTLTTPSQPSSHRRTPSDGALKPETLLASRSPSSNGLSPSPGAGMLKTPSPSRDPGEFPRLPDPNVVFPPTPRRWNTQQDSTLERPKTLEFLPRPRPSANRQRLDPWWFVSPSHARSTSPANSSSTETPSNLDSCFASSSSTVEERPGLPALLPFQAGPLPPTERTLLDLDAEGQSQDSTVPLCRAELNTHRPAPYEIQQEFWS", "parameters": "dose or concentration left out as unconfirmed"}, "GCK(h)": {"target": "GCK(h) (Homo sapiens (Human), UniProt Q12851)", "parameters": "dose or concentration left out as unconfirmed"}, "Fms(h)": {"target": "Fms(h) (Homo sapiens (Human), UniProt P07333)", "parameters": "dose or concentration left out as unconfirmed"}, "TBK1(h)": {"target": "TBK1(h) (Homo sapiens (Human), UniProt Q9UHD2)"}}, "data": [{"smiles": "Cc1cc2c(-c3ccc(NC(=O)[C@H](N)CC(C)(C)C)cc3C)ccnc2[nH]1", "note": "[Compound F-90, (2R)-2-Amino-4,4-dimethyl-N-[3-methyl-4-(2-methyl-1H-pyrrolo[2,3-b]pyridin-4-yl)phenyl]pentanamide]", "values": [{"measurement": "% Activity", "setting": "DCAMKL1(h)", "result": 95, "unit": "%"}, {"measurement": "% Activity", "setting": "Flt4(h)", "result": 96, "unit": "%"}, {"measurement": "% Activity", "setting": "PAK2(h)", "result": 95, "unit": "%"}, {"measurement": "% Activity", "setting": "MSSK1(h)", "result": 134, "unit": "%"}, {"measurement": "% Activity", "setting": "GRK3(h)", "result": 81, "unit": "%"}, {"measurement": "% Activity", "setting": "SRMS(h)", "result": 86, "unit": "%"}, {"measurement": "% Activity", "setting": "EphB3(h)", "result": 79, "unit": "%"}, {"measurement": "% Activity", "setting": "MST3(h)", "result": 85, "unit": "%"}, {"measurement": "% Activity", "setting": "CK2α2(h)", "result": 115, "unit": "%"}, {"measurement": "% Activity", "setting": "ICK(h)", "result": 99, "unit": "%"}, {"measurement": "% Activity", "setting": "Pim-1(h)", "result": 95, "unit": "%"}, {"measurement": "% Activity", "setting": "TTK(h)", "result": 102, "unit": "%"}, {"measurement": "% Activity", "setting": "CK1δ(h)", "result": 96, "unit": "%"}, {"measurement": "% Activity", "setting": "LIMK2(h)", "result": 72, "unit": "%"}, {"measurement": "% Activity", "setting": "MEKK3(h)", "result": 107, "unit": "%"}, {"measurement": "% Activity", "setting": "PKCη(h)", "result": 118, "unit": "%"}, {"measurement": "% Activity", "setting": "MYO3B(h)", "result": 79, "unit": "%"}, {"measurement": "% Activity", "setting": "STK25(h)", "result": 92, "unit": "%"}, {"measurement": "% Activity", "setting": "RIPK2(h)", "result": 97, "unit": "%"}, {"measurement": "% Activity", "setting": "PKCγ(h)", "result": 97, "unit": "%"}, {"measurement": "% Activity", "setting": "MAPK1(h)", "result": 95, "unit": "%"}, {"measurement": "% Activity", "setting": "Haspin(h)", "result": 140, "unit": "%"}, {"measurement": "% Activity", "setting": "CK1α(h)", "result": 97, "unit": "%"}, {"measurement": "% Activity", "setting": "CRIK(h)", "result": 0, "unit": "%"}, {"measurement": "% Activity", "setting": "CDKL3(h)", "result": 79, "unit": "%"}, {"measurement": "% Activity", "setting": "PKCε(h)", "result": 97, "unit": "%"}, {"measurement": "% Activity", "setting": "IKKε(h)", "result": 87, "unit": "%"}, {"measurement": "% Activity", "setting": "NEK4(h)", "result": 90, "unit": "%"}, {"measurement": "% Activity", "setting": "PAK5(h)", "result": 87, "unit": "%"}, {"measurement": "% Activity", "setting": "MLK1(h)", "result": 103, "unit": "%"}, {"measurement": "% Activity", "setting": "GCK(h)", "result": 118, "unit": "%"}, {"measurement": "% Activity", "setting": "Fms(h)", "result": 115, "unit": "%"}, {"measurement": "% Activity", "setting": "TBK1(h)", "result": 100, "unit": "%"}]}]}
